Assay results reported in patent US20060105458A1, “Caged tetracycline (derivatives), their generation, and their use for photoactivated gene expression” (priority 2002, published 2006).

Key:
[1] = tested on: tet-dependent chloramphenicol transferase (CAT) construct in organotypic hippocampal Müller cultures; assay: Photoactivation of organotypic hippocampal Müller cultures (tet-dependent CAT transgene, immunohistochemistry); type: cell-based, rat or mouse
Experimental: FIG. 3 depicts a second assay to test photoactivation in tissues, exemplified by the use of organotypic hippocampal Müller cultures. […] After administration of caged doxycycline to the cells by adding it to the medium and subsequent photoactivation, CAT expression was assessed immuno-histochemically. […] CAT expression in the irradiated slice is mainly seen in cells at the border of the slice where cells become infected with viruses much more rapidly than in the center.
FIG. 4 illustrates the result of a further experiment performed by the present inventors. That is, in order to test if photoactivated gene expression can be used to induce gene expression in a locally restricted manner, adenovirus-infected Müller cultures were irradiated only in one half of the slice. […] Again, fluorescence is mostly seen at the slice boundary where the virus most readily infects cells of the culture. Thus, photoactivated gene expression provides the researcher with excellent spatial control over gene expression.
Mouse or rat hippocampal Müller cultures were prepared according to standard procedures from P5-7 animals. […] Following overnight incubation, 0.15 μM caged doxycycline was added to the medium, incubated for 1 h, and slices or selected regions of slices were irradiated for 10 sec with an upright fluorescence microscope using an appropriate filter (XF3000, OMEGA OPTICAL). Following overnight incubation, CAT fluorescence was detected immunohistochemically with a polyclonal anti-CAT antibody (Sigma).

[2] = tested on: tet-dependent GFP construct in organotypic hippocampal Müller cultures; assay: Photoactivation of organotypic hippocampal Müller cultures (tet-dependent GFP transgene); type: cell-based, rat or mouse; settings: 1.5 μM, optical fiber 200 μm, irradiated three times for 2 min with an interval of 1 hour
Experimental: FIG. 5 depicts a modified assay to test photoactivation in tissues, exemplified again by the use of organotypic hippocampal Müller cultures. […] To determine the maximal level of GFP expression that is possible with this approach, unmodified doxycycline was added in saturating concentrations (2 μM). […] The bright-field image on the right allows normal visualization of the culture (FIG. 5b).
FIG. 6: In a new set of experiments, photoactivation was done by using thin optical fibers (200 μm) for irradiation with the UV light coming from a Xenon arc lamp. The UV beam could be positioned with the help of a recording electrode that was aligned to be in the center of the circular irradiation area. About half of the culture was irradiated with this arrangement. The position of the electrode is indicated by the red dot. The culture was incubated with 1.5 μM caged doxycycline one hour prior to irradiation. Cultures were irradiated three times for 2 min with an interval of 1 hour. […] FIG. 6b indicates the electrode position relative to the whole culture.

[3] = final concentration 0.1 to 1 μM, within 24 h at 37° C.
[4] = tested on: CHO cells expressing the fusion protein and containing a tetracycline-dependent EGFP construct; assay: Photoactivation of CHO cells (EGFP reporter); type: cell-based
Experimental: CHO cells mentioned above (that is, cells expressing the fusion protein^3 and containing a tetracycline-dependent EGFP) were used as a simple cell culture assay were propagated and plated according to standard cell culture procedures in Ham's F-12 medium. Cells were plated in 35 mm dishes with a glass bottom from Mattek. Two days after plating, cells were overlaid with 1% low-gelling agarose in Ham's F-12 containing 1 mM Na-butyrate and 0.3 μM caged doxycycline. Subsequently, a subset of cells was locally irradiated with a hand-held 6W UV lamp (365 nm) for 30 sec. Following overnight incubation, EGFP expression was assessed with a fluorescence microscope.

| Compound | CAT expression, unirradiated control slice ([1]; no irradiation) | CAT expression, irradiated slice ([1]; single pulse of UV irradiation, 0.15 μM caged doxycycline) | GFP expression after local UV irradiation [2] | Spontaneous decomposition under incubation conditions [3] | EGFP fluorescence, irradiated cells ([4]; CHO cells incubated with caged compound (0.3 μM), UV 365 nm 30 sec, overnight incubation) | EGFP fluorescence, cells not irradiated ([4]; cells in the same dish that were not irradiated) | Local expression of genes/transgenes on irradiation ([1]; irradiated CHO cells or organotypic hippocampal Müller cultures) |
| --- | --- | --- | --- | --- | --- | --- | --- |
| 1-(4,5-dimethoxy-2-nitrophenyl)-ethyl-caged doxycycline [DMNPE-caged doxycycline] | did not display any CAT expression | CAT expression in a few cells | GFP positive cells that are within the circular irradiation area | about 10% |  |  |  |
| COc1cc(C(C)O[C@]23C(=O)C(C(N)=O)=C(O)[C@H](N(C)C)[C@H]2[C@H](O)[C@@H]2C(=C3O)C(=O)c3c(O)cccc3[C@H]2C)c([N+](=O)[O-])cc1OC (stereo partly shown) [DMNPE-caged doxycycline, 1-(4,5-dimethoxy-2-nitrophenyl)-ethyl-caged doxycycline] |  |  |  |  | widespread EGFP fluorescence | did not fluoresce | specific, time-dependent, and local expression of genes/transgenes |
